Where “and” joins values, the source holds several entries; their conditions need not be identical. Equal values may be shown once. Entries after “also recorded” stand apart in the source; their conditions may differ.

One data set deals with Rhesus monkeys. The data set can be described thus: Serum calcium after single oral bolus dose in Rhesus monkeys. Format: in vivo, Rhesus monkey. As to conditions: 24 hours after dose, FIG. 10. Details: dose or concentration left out as unconfirmed. The protocol: FIG. 10 is a line graph illustrating the blood serum calcium levels 24 hours after dose in Rhesus monkeys given a single oral bolus dose of 2-methylene-19-nor-20(S)-1α,25-dihydroxyvitamin D3 (2MD) at varying concentrations;
These and other tests indicate that primates will tolerate 2MD extremely well which may give a very large window between efficacy and the danger of hypercalcemia in man.

Data set [1] concerns mobilization of bone calcium. The data set can be described thus: Bone calcium mobilization (serum calcium) in vitamin D-deficient rats. Format: in vivo, rat. As to conditions: serum calcium 24 hours after last dose, zero calcium diet, FIG. 3. The protocol: Blood serum calcium was measured 24 hours following the last dose in the rats as described in FIG. 2. Values represent mean±standard error.
(§1) The intestinal calcium transport and bone mobilization studies were carried out as described by Sicinski et al. (J. Med. Chem. 41, 4662–4674, 1998) and Suda et al. (J. Nutr. 100, 1049–1052, 1970).
The in vivo tests of increasing serum calcium of rats on a zero calcium diet provides an insight to […] or bone activity of 2MD.

Data set [2] deals with intestinal calcium transport. Nature of the data set: Intestinal calcium transport in vitamin D-deficient rats (everted gut sac). Format: in vivo, rat. As to conditions: oral gavage 7 consecutive days, FIG. 2. Here is the method: Values represent means±standard error.
as §1

Data set [3] concerns the target T1, full length recombinant rat receptor (nuclear vitamin D receptor) (Rattus norvegicus, UniProt P13053).
T1 construct: the full length recombinant rat receptor
T1 sequence (P13053 1-423): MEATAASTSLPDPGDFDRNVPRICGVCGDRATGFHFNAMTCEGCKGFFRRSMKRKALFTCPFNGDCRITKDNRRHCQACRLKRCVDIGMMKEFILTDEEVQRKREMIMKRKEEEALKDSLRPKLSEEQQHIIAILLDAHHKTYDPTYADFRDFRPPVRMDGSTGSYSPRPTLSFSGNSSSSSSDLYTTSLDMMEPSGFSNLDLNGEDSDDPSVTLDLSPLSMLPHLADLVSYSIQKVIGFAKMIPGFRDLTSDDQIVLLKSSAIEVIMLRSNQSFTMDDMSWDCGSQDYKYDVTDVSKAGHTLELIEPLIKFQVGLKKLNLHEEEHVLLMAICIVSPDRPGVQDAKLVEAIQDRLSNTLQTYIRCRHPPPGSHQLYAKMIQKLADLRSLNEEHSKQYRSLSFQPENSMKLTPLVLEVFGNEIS
Nature of the data set: Competitive binding of [3H]-1α,25-(OH)2-D3 to full length recombinant rat vitamin D receptor. As to conditions: FIG. 1.

The test system of data set [4] is HL-60 promyelocytic cells. The data set can be described thus: HL-60 cell differentiation into monocytes. The class given is cell-based. As to conditions: FIG. 5. The protocol: The differentiation of HL-60 promyelocytic cells into monocytes was determined as described by Ostrem et al. (J. Biol. Chem. 262, 14164–14171, 1987).
Data set [5] relates to normal adult female Sprague-Dawley rats. The data set can be described thus: Building bone mass in normal adult female rats (BMD, body weight, serum calcium). The class given is in vivo, rat. As to conditions: 2.5 ng/kg/d oral. The protocol:
All 7-month old, nulliparous female, Sprague-Dawley rats (Harlan Sprague-Dawley, Madison, Wis.) were sham-operated at 7 months of age.
Beginning with arrival in the facility, rats were fed a purified rodent diet (“Diet 11”) prepared in-house (Suda et al, 1970, J. Nutr., 100:1049–1052) and containing 0.47% calcium, 0.3% phosphorus and 1.6 IU vitamin D3/g. To maintain consistent body weights (monitored weekly), rats were fed a total of 150 g diet/week, i.e. 21.5 g/day/rat.
Rats were dosed daily beginning 5–6 weeks post-surgery. Neobee oil (vehicle) or 2MD were delivered to the back of the tongue in 100 μL. The dosing solution concentrations were adjusted monthly based on group-average body weights.
At predose and at 1, 2, 4, 6, 10, 11, 18 and 25 weeks after dose, blood was collected 24 hr. after the most recent dose from the tail artery of ether-anesthetized rats. Serum was diluted in 0.1% lanthum chloride and the concentration of calcium determined by atomic absorption spectrometry. The values shown are averages for all rats, and include standard errors.
Both total body BMD and appendicular (right distal and proximal femur) BMD were determined by dual-energy X-ray absorptiometry (Lunar DPXα-Madison, Wis.; Small Animal Software-version 1.0e) at weeks 0, 8, 16, and 24. Appendicular BMD was performed as described (Haffa et al, 2000, J. Bone Min. Res. 15:872). The values shown are averages for all rats and include standard errors.

Data set [6] has as its system ovariectomized old female rats. The data set can be described thus: Treatment of ovariectomized old female rats (bone mass, serum calcium, femur ash). Format: in vivo, rat. As to conditions: doses of Table 1. The source says:
Values in the figure are mean±standard error.

For the compound `C=C1[C@H](O)CC(=C/C=C2\CCC[C@]3(C)[C@@H]([C@@H](C)CCCC(C)(C)O)CC[C@@H]23)C[C@H]1O` [2MD, 2-methylene-19-nor-20(S)-1α,25-dihydroxyvitamin D3], the “elevation of serum calcium concentration” value with Rhesus monkeys is reported as “does not cause significant elevation”. The “potency relative to 1,25(OH)2D3 in mobilization of bone calcium” value in data set [1] is 100 times and 80–100 times. In addition, the “intestinal calcium transport activity compared with 1,25(OH)2D3” value in data set [2] is listed as “activity similar to that of 1,25-dihydroxyvitamin D3; also recorded: approximately equal”. For the same compound, the “binding to the receptor as compared to the standard 1,25-(OH)2D3” value in data set [3] is recorded as “bound equally well; also recorded: about as active as 1,25(OH)2D3”. Also, the “potency relative to 1,25(OH)2D3 on HL-60 cell differentiation” value in data set [4] was 10–50 times. In data set [5] (24 weeks, FIG. 12A), the “increase in cancellous bone BMD” value turned out to be 14%. For the same compound, the “increase in cortical bone” value in data set [5] (FIG. 12B) stood at 6%. Also, the “change in body weight” value in data set [5] (FIG. 13A) was “absence of any change”. The “change in serum calcium” value in data set [5] (FIG. 13B) is recorded as “absence of any change”. Also, the “total body BMD versus vehicle control” value in data set [5] (from 8 to 24 weeks, FIG. 11) is listed as “increased above vehicle-control animals”. The “change in serum calcium at dosage levels that elevated bone mass” value in data set [6] was “no change in serum calcium”.

(Values after patent US7214671B2, “Use of 2-methylene-19-nor-20(S)-1α,25-dihydroxyvitamin D3 for the prophylaxis of bone diseases” (Wisconsin Alumni Research Foundation, priority 2004, dated 2007).)
